From patent US20260225997A1, “IONIZABLE AMINE LIPIDS” (Intellia Therapeutics, Inc., priority 2018, published 2026)

Experiments:
[1] = tested on: B2M; assay: B2M editing in mouse liver by NGS after i.v. LNP delivery of Cas9 mRNA and sgRNA; type: in vivo; conditions: CD-1 female mice; for Editing (%) of B2M in mouse liver: Example 52: LNP single dose 0.1 mg/kg i.v., sgRNA G650:Cas9 mRNA 1:1, NGS; for % Editing B2M in mouse liver: 7 days post-dose, G650 1:1
Procedure: Preparations of various LNP compositions were prepared with amine lipids. In assays for percent liver editing in mice, Cas9 mRNA and chemically modified sgRNA were formulated in LNPs, at either a 1:1 w/w ratio or a 1:2 w/w ratio. LNPs are formulated with a composition of a given ionizable lipid (e.g. an amine lipid), DSPC, cholesterol, and PEG-2k-DMG, with a 6.0 N:P ratio.
LNPs were administered to mice by a single dose at 0.1 mg/kg, unless otherwise noted and genomic DNA was isolated for NGS analysis as described below.
CD-1 female mice, ranging from 6-10 weeks of age were used in each study. Animals were weighed and grouped according to body weight for preparing dosing solutions based on group average weight. LNPs were dosed via the lateral tail vein in a volume of 0.2 mL per animal (approximately 10 mL per kilogram body weight). The animals were periodically observed post dose for adverse effects for at least 24 hours post dose. Animals were euthanized at 6 or 7 days by exsanguination via cardiac puncture under isoflurane anesthesia. Blood was collected into serum separator tubes or into tubes containing buffered sodium citrate for plasma as described herein. For studies involving in vivo editing, liver tissue was collected from each animal for DNA extraction and analysis.
Cohorts of mice were measured for liver editing by Next-Generation Sequencing (NGS).
In brief, to quantitatively determine the efficiency of editing at the target location in the genome, genomic DNA was isolated and deep sequencing was utilized to identify the presence of insertions and deletions introduced by gene editing.
PCR primers were designed around the target site (e.g., B2M), and the genomic area of interest was amplified. Additional PCR was performed according to the manufacturer's protocols (Illumina) to add the necessary chemistry for sequencing. The amplicons were sequenced on an Illumina MiSeq instrument. The reads were aligned to the […] after eliminating those having low quality scores. The resulting files containing the reads were mapped to the reference genome (BAM files), where reads that overlapped the target region of interest were selected and the number of wild type reads versus the number of reads which contain an insertion, substitution, or deletion was calculated.
The editing percentage (e.g., the “editing efficiency” or “percent editing”) is defined as the total number of sequence reads with insertions or deletions over the total number of sequence reads, including wild type.
CD-1 female mice were dosed i.v. at 0.1 mpk or 0.3 mpk. […] For animals dosed with G282 targeting TTR, blood and the liver were collected and serum TTR and editing were measured. For animals dosed with G650 targeting B2M, liver was collected and editing was measured.

[2] = pKa measurement of unformulated amine lipid (fluorescence, method of Jayaraman et al.); type: physicochemical; conditions: 100 μM in 0.1 M phosphate buffer pH 4.5-9.0
Procedure: The pKa of each amine lipid was determined according to the method in Jayaraman, et al. (Angewandte Chemie, 2012) with the following adaptations. […] Lipid was diluted to 100 μM in 0.1 M phosphate buffer (Boston Bioproducts) where the pH ranged from 4.5-9.0. Fluorescence intensity was measured using excitation and emission wavelengths of 321 nm and 448 nm.

[3] = LNP average particle size and polydispersity by dynamic light scattering (Malvern Zetasizer); type: physicochemical; conditions: Table 3, Example 52: LNP, Cas9 mRNA + sgRNA (G650) 1:1 w/w, N:P 6.0
Text: The LNPs have a size of about 1 to about 1,000 nm, about 10 to about 500 nm, about 20 to about 500 nm, in a sub-embodiment about 50 to about 400 nm, in a sub-embodiment about 50 to about 300 nm, in a sub-embodiment about 50 to about 200 nm, and in a sub-embodiment about 50 to about 150 nm, and in another sub-embodiment about 60 to about 120 nm. Preferably, the LNPs have a size from about 60 nm to about 100 nm. The average sizes (diameters) of the fully formed LNP, may be measured by dynamic light scattering on a Malvern Zetasizer. The LNP sample is diluted in phosphate buffered saline (PBS) so that the count rate is approximately 200-400 kcps. The data is presented as a weighted average of the intensity measure.
The LNPs disclosed herein have a size (e.g. Z-average diameter) of about 1 to about 250 nm. In some embodiments, the LNPs have a size of about 10 to about 200 nm. In further embodiments, the LNPs have a size of about 20 to about 150 nm. In some embodiments, the LNPs have a size of about 50 to about 150 nm. In some embodiments, the LNPs have a size of about 50 to about 100 nm. In some embodiments, the LNPs have a size of about 50 to about 120 nm. In some embodiments, the LNPs have a size of about 60 to about 100 nm. In some embodiments, the LNPs have a size of about 75 to about 150 nm. In some embodiments, the LNPs have a size of about 75 to about 120 nm. In some embodiments, the LNPs have a size of about 75 to about 100 nm. Unless indicated otherwise, all sizes referred to herein are the average sizes (diameters) of the fully formed nanoparticles, as measured by dynamic light scattering on a Malvern Zetasizer. The nanoparticle sample is diluted in phosphate buffered saline (PBS) so that the count rate is approximately 200-400 kcps. The data is presented as a weighted-average of the intensity measure (Z-average diameter).
Dynamic Light Scattering (“DLS”) is used to characterize the polydispersity index (“pdi”) and size of the LNPs of the present disclosure. DLS measures the scattering of light that results from subjecting a sample to a light source. PDI, as determined from DLS measurements, represents the distribution of particle size (around the mean particle size) in a population, with a perfectly uniform population having a PDI of zero.
LNP compositions are analyzed for average particle size, polydispersity index (pdi), total RNA content, encapsulation efficiency of RNA, and zeta potential. LNP compositions may be further characterized by lipid analysis, AF4-MALS, NTA, and/or cryo-EM. Average particle size and polydispersity are measured by dynamic light scattering (DLS) using a Malvern Zetasizer DLS instrument. LNP samples were diluted with PBS buffer prior to being measured by DLS. Z-average diameter which is an intensity-based measurement of average particle size was reported along with number average diameter and pdi. A Malvern Zetasizer instrument is also used to measure the zeta potential of the LNP. Samples are diluted 1:17 (50 μL into 800 μL) in 0.1×PBS, pH 7.4 prior to measurement.

[4] = RNA encapsulation efficiency of LNP (Ribogreen fluorescence assay); type: physicochemical; conditions: Table 3, Example 52: LNP, Cas9 mRNA + sgRNA (G650) 1:1 w/w, N:P 6.0; Compound 19 50/9/38/3, others 50/10/38.5/1.5
Procedure: A fluorescence-based assay (Ribogreen®, ThermoFisher Scientific) is used to determine total RNA concentration and free RNA. Encapsulation efficiency is calculated as (Total RNA−Free RNA)/Total RNA. LNP samples are diluted appropriately with 1× TE buffer containing 0.2% Triton-X 100 to determine total RNA or 1× TE buffer to determine free RNA. Standard curves are prepared by utilizing the starting RNA solution used to make the compositions and diluted in 1× TE buffer+/−0.2% Triton-X 100. Diluted RiboGreen® dye (according to the manufacturer's instructions) is then added to each of the standards and samples and allowed to incubate for approximately 10 minutes at room temperature, in the absence of light. A SpectraMax M5 Microplate Reader (Molecular Devices) is used to read the samples with excitation, auto cutoff and emission wavelengths set to 488 nm, 515 nm, and 525 nm respectively. Total RNA and free RNA are determined from the appropriate standard curves.
Encapsulation efficiency is calculated as (Total RNA−Free RNA)/Total RNA. The same procedure may be used for determining the encapsulation efficiency of a DNA-based cargo component. For single-strand DNA Oligreen Dye may be used, and for double-strand DNA, Picogreen Dye.

[5] = tested on: TTR; assay: Transthyretin (TTR) ELISA analysis of mouse serum after LNP dosing; type: in vivo; conditions: 7 days post-dose
How it was run: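 Female CD-1 mice aged 6-10 weeks were grouped by body weight and given LNPs by lateral tail vein injection (0.2 mL per animal, about 10 mL per kilogram). Mice were bled by cardiac puncture under isoflurane into serum separator tubes. Serum was diluted 10,000-fold for the 0.1 mpk dose, and total TTR was quantified with a Mouse Prealbumin (Transthyretin) ELISA Kit following the kit directions.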

[6] = tested on: TTR; assay: TTR editing in mouse liver by NGS after i.v. LNP delivery of Cas9 mRNA and sgRNA; type: in vivo; conditions: CD-1 female mice, 7 days post-dose
How it was run: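 Cas9 mRNA and chemically modified sgRNA were co-formulated in LNPs made of an ionizable amine lipid, DSPC, cholesterol and PEG-2k-DMG at a 6.0 N:P ratio. CD-1 female mice aged 6-10 weeks received tail-vein injections of 0.2 mL. Liver genomic DNA was then amplified around the target site and sequenced on an Illumina MiSeq, with editing calculated as indel-containing reads over total reads.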

[7] = Example 61: 0.1 mpk i.v., G282 1:1

## CCCCCCCCCOC(=O)CCCCCCCN(CCO)CCCCCCCC(OCCCCCCCCC)OCCCCCCCCC [Compound 2]
[1]
  Editing (%) of B2M in mouse liver: 17.7%
[2]
  pKa: 6.23

## CCCCCCCCCCOC(CCCCCCCN(CCO)CCCCCCCC(=O)OCCCCCCCCC)OCCCCCCCCCC [Compound 3, nonyl 8-[8,8-didecoxyoctyl(2-hydroxyethyl)amino]octanoate]
[3]
  Num Ave Size (nm): 57.41 nm
  PDI: 0.056
  Z-Ave Size (nm): 75.79 nm
[1]
  Editing (%) of B2M in mouse liver: 8.8%
[2]
  pKa: 6.19
[4]
  Encapsulation (%): 98%

## CCCCCCCCCOC(=O)CCCCCCCN(CCO)CCCCCCCCCC(OCCCCCCC)OCCCCCCC [Compound 4, nonyl 8-[10, 10-diheptoxydecyl(2-hydroxyethyl)amino]octanoate]
[5]; [7]
  Serum TTR: 333 µg/mL
[5]; Mus musculus, iv, 168 h, Example 61: 0.1 mpk i.v., G282 1:1, read-out: Serum TTR % TSS
  response vs control in vivo at 0.1 mg/kg: 26%
[1]; Example 54: 0.1 mpk i.v.
  % Editing B2M in mouse liver: 29%
[1]; Example 54: 0.3 mpk i.v.
  % Editing B2M in mouse liver: 57%
[2]
  pKa: 7.04
[6]; [7]
  Editing Mean % Indel: 46.7%

## CCCCCCCCCOC(=O)CCCCCCCN(CCO)CCCCCCCCCC(OCCCCCCCC)OCCCCCCCC [Compound 5]
[5]; Example 56: 0.1 mpk i.v., G282
  Serum TTR: 738 µg/mL
  Serum TTR (% TSS): 92 % TSS
[1]
  Editing (%) of B2M in mouse liver: 13.2%
[2]
  pKa: 7.08
[6]; Example 56: 0.1 mpk i.v., G282
  Editing %: 9%

## CCCCCCCCCOC(=O)CCCCCCCN(CCO)CCCCCCCCCC(OCCCCCCCCC)OCCCCCCCCC [Compound 6, 8-[10,10-di(nonoxy)decyl-(2-hydroxyethyl)amino]octanoate]
[1]
  Editing (%) of B2M in mouse liver: 8.2%
[2]
  pKa: 6.3
